# From patent US20190070124A1, “COMPOSITIONS OF CB2 RECEPTOR SELECTIVE AGONISTS FOR TREATMENT OF MENTAL DISORDERS” (priority 2016, published 2019)
# “Also recorded” adds a separate entry of the source.
# Assays:
# [1] = test system: DOI-induced psychotic-like behaviour; assay type: in vivo, mice
# [2] = test system: murine model of schizophrenia; assay: Open-field test (ambulation, rearing, grooming) in the PCP mouse model
# Procedure: Mice were assessed for hyperactivity behavior on postnatal day 16 (FIG. 2). Mice were placed in the center of a transparent glass cube cage 30×40 X31 cm divided into squares of 7.5×7.5 cm. The number of squares and rearing activity were counted for 8 min.
# Mice were assessed for hyperactivity behavior on postnatal day 64-66. Mice were placed in the center of a transparent glass cube cage 30×40 X31 cm divided into squares of 7.5×7.5 cm. The number of squares and rearing activity were counted for 8 min.
# [3] = target: cannabinoid receptor CB2 (Homo sapiens, UniProt P34972); details: cited from earlier work
# cannabinoid receptor CB2, sequence (P34972 whole entry): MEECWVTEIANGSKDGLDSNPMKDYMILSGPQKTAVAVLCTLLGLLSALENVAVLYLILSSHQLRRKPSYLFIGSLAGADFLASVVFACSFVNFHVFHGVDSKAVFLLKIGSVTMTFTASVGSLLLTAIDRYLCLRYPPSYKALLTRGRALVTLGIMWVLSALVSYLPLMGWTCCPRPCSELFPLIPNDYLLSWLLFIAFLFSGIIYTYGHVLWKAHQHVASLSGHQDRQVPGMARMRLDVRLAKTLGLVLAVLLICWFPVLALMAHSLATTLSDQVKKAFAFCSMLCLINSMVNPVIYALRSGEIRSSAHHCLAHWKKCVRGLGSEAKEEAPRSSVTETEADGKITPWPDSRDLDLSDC
# [4] = target: CB2 receptor (Homo sapiens, UniProt P34972); details: Chicca A. et al 2014; cited from earlier work
# CB2 receptor, sequence (P34972 whole entry): as above
# [5] = Skold et al. 2006; cited from earlier work
# [6] = test system: murine model of schizophrenia; assay: Prepulse inhibition (PPI) of the startle reflex in the PCP mouse model; assay type: in vivo, mice; details: age 7-8 weeks
# Procedure: In this experimental model, a weak stimulus (74-90 dB tone) inhibited the subsequent response to a strong stimulus (120 dB tone). Reduced prepulse inhibition of the startle reflex (PPI) was taken as an index of the positive symptoms of schizophrenia (Josselyn and Vaccarino, 1998).
# PPI was assessed similarly to the method described by Varty et al. In the employed model, mice were placed in a startle chamber and allowed to acclimate for 5 min. A loudspeaker produced a 65 dB background white noise or the various acoustic pre-pulse stimuli (dB): 74, 78, 82, 86, and 90 (20 ms). A 120 dB (40 ms) stimulus was given first to induce a response to startle. The response of the mouse was transduced and stored by a computer. Each test session lasted for 11 min and consisted of 5 presentations of each of the trial types presented in random order and separated by 15 second intervals. The amount of prepulse inhibition was calculated as % PPI=[1−(startle response for prepulse+pulse)/(startle response for pulse alone)]×100.
# The % PPI indicates of level of disruption of the sensorimotor gating system in schizophrenia but also serves as an indicator of memory function. The % PPI after administration of PCP and treatment of BCP in the PPI test also serve as an index of memory function, further supporting the function of the sensorimotor system.
# [7] = Hanus et al 1999, cited from earlier work
# [8] = test system: murine model of schizophrenia; assay: Elevated Plus Maze test in the PCP mouse model; assay type: in vivo, mice; details: age 13 weeks; PCP 5 mg/kg injected postnatally
# Procedure: Anxiety as measured by the paucity of time spent on the two, anxiety-provoking, open arms (as opposed to the two enclosed arms) of an “Elevated Plus Maze” was used as a parameter of negative symptoms of schizophrenia (Josselyn and Vaccarino, 1998). The plus maze was elevated 50 cm above the table top. Behavior of each mouse was recorded for 5 min by a video camera and scored using the “EthoVision” software (Noldus Information Technology, Wageningen, The Netherlands), measuring the number of entries as well as the amount of time spent in each arm, open or closed. Increased time spent in the closed arms indicated increased anxiety. Increased time spent in the opened arms indicated anxiolytic behavior (reduced stress).
# [9] = test system: murine model of schizophrenia; assay: PhenoTyper cage behaviour in the PCP mouse model; assay type: in vivo, mice; details: PCP 5 mg/kg injected postnatally
# [10] = Body weight in the neonatal PCP mouse model of schizophrenia; details: PCP 5 mg/kg injected postnatally
# [11] = target: CYP2D6 (Homo sapiens, UniProt P10635); assay: CYP450 enzymatic metabolism in human liver microsomes; details: human liver microsomes 0.1 mg/mL, 20 min, 37 C
# CYP2D6, sequence (P10635 whole entry): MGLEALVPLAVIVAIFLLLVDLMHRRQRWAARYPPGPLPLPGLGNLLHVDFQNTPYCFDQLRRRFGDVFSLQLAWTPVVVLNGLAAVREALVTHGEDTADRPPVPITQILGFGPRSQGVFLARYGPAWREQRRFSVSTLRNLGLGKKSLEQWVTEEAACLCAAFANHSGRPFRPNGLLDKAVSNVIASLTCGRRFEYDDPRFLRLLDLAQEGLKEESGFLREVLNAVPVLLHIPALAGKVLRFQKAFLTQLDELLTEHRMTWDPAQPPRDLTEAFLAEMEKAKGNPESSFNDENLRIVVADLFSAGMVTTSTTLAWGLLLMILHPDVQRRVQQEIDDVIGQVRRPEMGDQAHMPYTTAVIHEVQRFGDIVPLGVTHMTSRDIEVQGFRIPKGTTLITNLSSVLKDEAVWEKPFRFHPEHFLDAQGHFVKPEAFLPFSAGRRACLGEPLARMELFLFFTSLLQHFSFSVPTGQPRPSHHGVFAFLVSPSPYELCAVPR
# Procedure: CYP450 dependent activities were determined using a known substrate. […] A known inhibitor, such as quinidine, tested at a single concentration 3.00 μM was included as positive control. Incubation mixture containing human liver microsomes (0.1 mg/mL), substrate (5 μM) and standard inhibitor or test compound were warmed at 37 C for 10 minutes. Reactions were initiated by addition of the NADPH (1 mM) and the mixture was incubated for 20 minutes at 37° C. water bath. The organic solvent in the reaction mixture was DMSO. After incubation, ice cold acetonitrile was added to terminate the reaction. Generation of metabolite from the substrate reactions was determined by LC-MS/MS and assessed based on peak area ratios of analyte/IS. Mean was used to calculate the extent of inhibition (expressed as % of control activity).
compound,measurement,setting,value
"COc1cc(CC(C)N)c(OC)cc1I.Cl (single isomer, unassigned; (-)) [DOI, (−)-1-(2,5-Dimethoxy-4-iodophenyl)-2-aminopropane hydrochloride, reference compound]","grooming response, DOI vs control","[1]; DOI injected intraperitoneally to mice, hydrochloride",significantly increased the grooming response
"COc1ccc(C(=O)c2c(C)n(CCN3CCOCC3)c3cc(I)ccc23)cc1 [AM630, 6-Iodopravadoline, reference compound]","open-field ambulation and rearing, reversal of the BCP effect","[2]; PND 17, male mice, AM630 10 mg/kg co-injected with BCP 10 mg/kg 1 h after PCP",reversed the effects of BCP on ambulation and rearing behaviors; also recorded: not significantly different from these of PCP-treated mice; also recorded: reversed the effect of BCP on PCP-induced inhibition of ambulation and rearing
same,Ki,[3],32.1 nM
"C=C1CC[C@H]2O[C@]2(C)CC[C@@H]2[C@@H]1CC2(C)C [BCP oxide, Caryophyllene oxide]",CB2 receptor binding,[4],inactivity
same,allergenicity,[5],found to be an allergen
"CCCCCCC(C)(C)c1cc(OC)c([C@@H]2C=C(CO)[C@@H]3C[C@H]2C3(C)C)c(OC)c1 [HU-308, [(1R,2R,5R)-2-[2,6-dimethoxy-4-(2-methyloctan-2-yl)phenyl]-7,7-dimethyl-4-bicyclo[3.1.1]hept-3-enyl]methanol]",% PPI,"[6]; HU-308 5 mg/kg injected 1 h after PCP postnatally (Cremophor EL:ethanol:saline), 5 mg/kg",reversed the effect of PCP on the % PPI; also recorded: reversed the effect of PCP in the PPI test
same,time to inhibition of DOI-induced psychotic-like behaviour,[1]; HU-308 i.p. before DOI,already after about one hour
same,DOI-induced grooming response,[1]; HU-308 injected intraperitoneally one to two hours before DOI,reverses the effects of the psychedelic drug DOI on behavioral symptoms in a murine model; also recorded: significantly reversed the effect of DOI on grooming response
same,body weight of adult mice,[7],does not modulate body weight of adult mice
same,psychoactivity in vivo,[7],non-psychoactive agent in vivo
same,open field assay,[7]; similar age of mice (about PND 63),no effects of HU-308 in the open field assay
"c1ccc(C2(N3CCCCC3)CCCCC2)cc1 [PCP, Phencyclidine, reference compound]","open-field ambulation and rearing, PCP vs vehicle","[2]; PND 16-17, PCP 5 mg/kg injected postnatally",significantly inhibited both ambulation and rearing behaviors
same,"open-field locomotor activity, males, PCP vs vehicle","[2]; PND 35-37, PCP 5 mg/kg injected postnatally",significantly increased the locomotor activity compared with vehicle treatment
same,"time spent in distal end of the opened arm, females, PCP vs vehicle",[8],reduced the time spent in the distal end of the opened arm
same,"time spent in distal end of the opened arm, males, PCP vs vehicle",[8],increased the time spent in the distal end of the opened arm
same,"frequency of entries to the Hidden Zone, males, PCP vs vehicle",[9]; PND 91,appeared to reduce the frequency of entries to the Hidden Zone in males
same,"frequency of entries to the wheel, PCP vs vehicle",[9]; PND 91,reduced the frequency of entries to the wheel
same,"time spent at the Hidden Zone, PCP vs vehicle",[9]; PND 91,increased the time spend at the Hidden Zone
same,"frequency of entries to the Hidden Zone, PCP vs vehicle",[9]; PND 105,increased the frequency of entries to the Hidden Zone
same,"% prepulse inhibition, PCP vs vehicle",[6]; PCP 5 mg/kg injected postnatally,reduced the percent inhibition; also recorded: significant reduction in their ability to adjust to sound stimulus as compared to vehicle treated mice
same,"body weight, PCP vs vehicle",[10]; weight PND 3-17,significantly reduce the body weight; also recorded: induced a significant reduction in body weight; also recorded: difference between vehicle- and PCP-treated groups in body weight was still significant; also recorded: significantly reduced body weight in male and female mice
same,"body weight, PCP vs vehicle",[10]; PND 63,no significant difference in the body weight between vehicle-treated mice and PCP-treated mice
C/C1=C\CC/C(C)=C/CC(C)(C)/C=C/C1 [alpha-humulene],CB2 receptor binding,[4],inactivity
"Cc1nc2n(c(=O)c1CCN1CCC(c3noc4cc(F)ccc34)CC1)CCCC2 [risperidone, Risperidone, reference compound]","activity in the open field test, male mice","[2]; postnatal day 64, postnatal PCP 5 mg/kg, oral risperidone 0.5 mg/kg twice a week, PND 43-62",reversed the effect of 5 mg/kg PCP on activity in the open field test of male mice at postnatal day 64
same,inhibition of CYP2D6 enzymatic activity,[11],inhibited the activity of CYP2D6 enzyme
same,inhibition of CYP2D6 enzymatic activity,[11]; listed as Risperidone,inhibited CYP2D6 enzymatic activity
